According to the NIST ThermoML archive (doi:10.1016/j.tca.2014.05.028):

Test: xn = mol fraction of the nth substance listed
Details: 101 kPa, Liquid; for viscosity: Falling or rolling sphere viscometry; for mass density: Vibrating tube method

CCCC[N+]1(C)CCCC1.[Br-] [1-butyl-1-methylpyrrolidinium bromide] + O
Details	mass density [kg/m3]	viscosity [mPa·s]
298.15 K, x1 = 0.0265	1049.2	1.64
298.15 K, x1 = 0.0561	1093.18	2.906
298.15 K, x1 = 0.0871	1125.96	4.9
298.15 K, x1 = 0.1283	1156.08	8.897
298.15 K, x1 = 0.1645	1174.63	13.84
298.15 K, x1 = 0.2074	1190.42	22.21
298.15 K, x1 = 0.2525	1202.66	36.28
298.15 K, x1 = 0.28	1208.32	44.98
298.15 K, x1 = 0.3012	1212.16	54.7
298.15 K, x1 = 0.3254	1215.99	67.64
298.15 K, x1 = 1	1221.19	–
303.15 K, x1 = 0.0265	1047.05	1.444
303.15 K, x1 = 0.0561	1090.36	2.5
303.15 K, x1 = 0.0871	1122.7	4.146
303.15 K, x1 = 0.1283	1152.59	7.398
303.15 K, x1 = 0.1645	1171.08	11.27
303.15 K, x1 = 0.2074	1186.89	17.69
303.15 K, x1 = 0.2525	1199.19	27.6
303.15 K, x1 = 0.28	1204.89	34.67
303.15 K, x1 = 0.3012	1208.76	41.65
303.15 K, x1 = 0.3254	1212.62	51.14
303.15 K, x1 = 1	1217.27	–
308.15 K, x1 = 0.0265	1044.76	1.24
308.15 K, x1 = 0.0561	1087.45	2.11
308.15 K, x1 = 0.0871	1119.39	3.445
308.15 K, x1 = 0.1283	1149.06	6.041
308.15 K, x1 = 0.1645	1167.5	9.049
308.15 K, x1 = 0.2074	1183.35	13.87
308.15 K, x1 = 0.2525	1195.71	21.22
308.15 K, x1 = 0.28	1201.45	26.45
308.15 K, x1 = 0.3012	1205.35	31.5
308.15 K, x1 = 0.3254	1209.25	38.4
308.15 K, x1 = 1	1213.38	–
313.15 K, x1 = 0.0265	1042.32	1.099
313.15 K, x1 = 0.0561	1084.45	1.833
313.15 K, x1 = 0.0871	1116.03	2.945
313.15 K, x1 = 0.1283	1145.49	5.106
313.15 K, x1 = 0.1645	1163.9	7.53
313.15 K, x1 = 0.2074	1179.78	11.35
313.15 K, x1 = 0.2525	1192.21	17.02
313.15 K, x1 = 0.28	1198	20.97
313.15 K, x1 = 0.3012	1201.93	24.8
313.15 K, x1 = 0.3254	1205.87	30.02
313.15 K, x1 = 1	1209.51	–
318.15 K, x1 = 0.0265	1039.75	0.987
318.15 K, x1 = 0.0561	1081.37	1.621
318.15 K, x1 = 0.0871	1112.61	2.579
318.15 K, x1 = 0.1283	1141.9	4.399
318.15 K, x1 = 0.1645	1160.28	6.4
318.15 K, x1 = 0.2074	1176.2	9.501
318.15 K, x1 = 0.2525	1188.7	14.03
318.15 K, x1 = 0.28	1194.53	17.12
318.15 K, x1 = 0.3012	1198.5	20.1
318.15 K, x1 = 0.3254	1202.48	24.1
318.15 K, x1 = 1	1205.66	–
323.15 K, x1 = 0.0265	1037.05	0.879
323.15 K, x1 = 0.0561	1078.21	1.42
323.15 K, x1 = 0.0871	1109.15	2.234
323.15 K, x1 = 0.1283	1138.27	3.762
323.15 K, x1 = 0.1645	1156.64	5.403
323.15 K, x1 = 0.2074	1172.59	7.915
323.15 K, x1 = 0.2525	1185.17	11.49
323.15 K, x1 = 0.28	1191.05	13.89
323.15 K, x1 = 0.3012	1195.06	16.27
323.15 K, x1 = 0.3254	1199.08	19.34
323.15 K, x1 = 1	1201.84	–
328.15 K, x1 = 0.0265	1034.23	0.782
328.15 K, x1 = 0.0561	1074.97	1.244
328.15 K, x1 = 0.0871	1105.64	1.935
328.15 K, x1 = 0.1283	1134.62	3.23
328.15 K, x1 = 0.1645	1152.97	4.572
328.15 K, x1 = 0.2074	1168.97	6.602
328.15 K, x1 = 0.2525	1181.63	9.462
328.15 K, x1 = 0.28	1187.55	11.38
328.15 K, x1 = 0.3012	1191.6	13.25
328.15 K, x1 = 0.3254	1195.67	15.64
328.15 K, x1 = 1	1198.05	–
333.15 K, x1 = 0.0265	1031.32	0.705
333.15 K, x1 = 0.0561	1071.61	1.1
333.15 K, x1 = 0.0871	1102.07	1.701
333.15 K, x1 = 0.1283	1130.94	2.817
333.15 K, x1 = 0.1645	1149.27	3.923
333.15 K, x1 = 0.2074	1165.34	5.554
333.15 K, x1 = 0.2525	1178.06	7.969
333.15 K, x1 = 0.28	1184.04	9.48
333.15 K, x1 = 0.3012	1188.13	10.97
333.15 K, x1 = 0.3254	1192.25	12.89
333.15 K, x1 = 1	1194.28	–
338.15 K, x1 = 0.0265	1028.4	0.649
338.15 K, x1 = 0.0561	1068.07	0.997
338.15 K, x1 = 0.0871	1098.46	1.536
338.15 K, x1 = 0.1283	1127.23	2.525
338.15 K, x1 = 0.1645	1145.56	3.462
338.15 K, x1 = 0.2074	1161.68	4.89
338.15 K, x1 = 0.2525	1174.49	6.876
338.15 K, x1 = 0.28	1180.52	8.118
338.15 K, x1 = 0.3012	1184.65	9.372
338.15 K, x1 = 0.3254	1188.82	10.94
338.15 K, x1 = 1	1190.53	–
343.15 K, x1 = 0.0265	1024.59	0.586
343.15 K, x1 = 0.0561	1065.42	0.887
343.15 K, x1 = 0.0871	1094.8	1.366
343.15 K, x1 = 0.1283	1123.48	2.229
343.15 K, x1 = 0.1645	1141.82	3.005
343.15 K, x1 = 0.2074	1158	4.186
343.15 K, x1 = 0.2525	1170.9	5.839
343.15 K, x1 = 0.28	1176.99	6.858
343.15 K, x1 = 0.3012	1181.16	7.882
343.15 K, x1 = 0.3254	1185.37	9.135
343.15 K, x1 = 1	1186.8	–
